Assay results published in ChEMBL document CHEMBL3046493, “Alpha2-Adrenergic Receptors in Intestinal Epithelial Cells: Mechanisms of Signaling, Role, and Regulation” (Med Chem Res, 2004).

biological target: Nischarin (Rattus norvegicus, UniProt Q4G017); assay: Binding affinity to I1 imidazoline binding site in Rattus norvegicus (rat) PC12 cells; assay type: cell-based, PC-12
Sequence (Q4G017 whole entry): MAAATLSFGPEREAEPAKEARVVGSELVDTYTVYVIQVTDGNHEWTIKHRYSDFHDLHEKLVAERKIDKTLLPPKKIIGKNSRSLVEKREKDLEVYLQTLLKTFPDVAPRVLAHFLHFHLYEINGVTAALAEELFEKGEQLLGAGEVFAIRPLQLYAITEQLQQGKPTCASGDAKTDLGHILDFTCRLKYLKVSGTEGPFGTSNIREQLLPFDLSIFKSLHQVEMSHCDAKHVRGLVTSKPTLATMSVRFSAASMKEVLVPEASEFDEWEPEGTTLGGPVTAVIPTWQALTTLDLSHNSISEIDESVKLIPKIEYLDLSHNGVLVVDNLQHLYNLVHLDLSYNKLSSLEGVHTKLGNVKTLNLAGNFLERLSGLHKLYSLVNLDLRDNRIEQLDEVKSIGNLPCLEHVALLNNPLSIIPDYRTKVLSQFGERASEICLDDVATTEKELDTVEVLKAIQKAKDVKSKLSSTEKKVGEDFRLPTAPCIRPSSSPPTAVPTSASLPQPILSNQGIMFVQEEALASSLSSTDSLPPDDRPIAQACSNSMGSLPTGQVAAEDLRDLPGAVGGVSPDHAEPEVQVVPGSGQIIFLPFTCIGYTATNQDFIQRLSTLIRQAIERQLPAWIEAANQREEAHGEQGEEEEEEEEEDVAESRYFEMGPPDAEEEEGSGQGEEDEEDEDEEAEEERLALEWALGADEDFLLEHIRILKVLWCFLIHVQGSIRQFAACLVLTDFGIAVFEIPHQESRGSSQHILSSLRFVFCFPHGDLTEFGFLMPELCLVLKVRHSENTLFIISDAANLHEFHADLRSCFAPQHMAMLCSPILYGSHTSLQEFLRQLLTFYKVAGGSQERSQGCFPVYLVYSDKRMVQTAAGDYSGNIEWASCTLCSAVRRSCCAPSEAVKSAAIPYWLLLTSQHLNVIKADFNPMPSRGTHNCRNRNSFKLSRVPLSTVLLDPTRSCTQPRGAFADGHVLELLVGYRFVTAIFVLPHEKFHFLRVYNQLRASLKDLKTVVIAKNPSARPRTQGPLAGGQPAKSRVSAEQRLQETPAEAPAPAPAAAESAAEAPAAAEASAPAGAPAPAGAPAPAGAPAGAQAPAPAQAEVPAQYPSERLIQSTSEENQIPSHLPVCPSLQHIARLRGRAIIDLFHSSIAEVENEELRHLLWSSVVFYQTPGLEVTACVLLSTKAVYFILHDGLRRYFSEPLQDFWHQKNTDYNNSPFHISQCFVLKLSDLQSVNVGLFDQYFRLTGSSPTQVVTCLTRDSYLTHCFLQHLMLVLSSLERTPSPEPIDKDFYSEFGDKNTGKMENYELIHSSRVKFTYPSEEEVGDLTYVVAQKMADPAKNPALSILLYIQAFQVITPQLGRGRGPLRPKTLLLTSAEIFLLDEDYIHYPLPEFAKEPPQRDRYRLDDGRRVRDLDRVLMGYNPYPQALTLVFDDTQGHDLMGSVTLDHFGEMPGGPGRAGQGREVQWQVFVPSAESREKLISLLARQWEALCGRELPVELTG

Ki [nM]	Compound
0.933	c1ccc(-c2ccccc2NCC2=NCCN2)cc1
7240	C[C@@H](CC1=NCCN1)c1ccccc1
1.29	c1ccc2cc(C3=NCCN3)ccc2c1 [BENAZOLINE]
513	C1CN=C(NC(C2CC2)C2CC2)C1
0.501	c1ccc(NCC2=NCCN2)cc1 [PHENAMAZOLINE]
3240	c1ccc(-c2ccccc2CCC2=NCCN2)cc1
6.92	Clc1cccc2c1CN(NC1=NCCN1)C2
3720	c1ccc(CCC2=NCCN2)cc1 [PHENYZOLINE]
3090	c1ccc(C(CC2=NCCN2)c2ccccc2)cc1
112	Clc1cccc(Cl)c1N=C1NCCN1 [CLONIDINE]
2.34	c1ccc(-c2ccccc2OCC2=NCCN2)cc1
11.2	C1COC(NC(C2CC2)C2CC2)=N1 [RILMENIDINE]
18.6	C(=C\c1ccccc1)/C1=NCCN1 [TRACIZOLINE]
589	C[C@H](CC1=NCCN1)c1ccccc1
245	c1ccc2c(CC3=NCCN3)cccc2c1 [NAPHAZOLINE]

Compound	Ki [nM]
Clc1cc(I)cc(Cl)c1N=C1NCCN1 [PI-CLONIDINE]	0.0339
c1ccc([C@H]2C[C@@H]2C2=NCCN2)cc1	11.7
C[C@H](Oc1ccccc1-c1ccccc1)C1=NCCN1	129
C[C@@H](Oc1ccccc1-c1ccccc1)C1=NCCN1	3.98
c1ccc(C2CC2)c(OCC2=NCCN2)c1 [CIRAZOLINE]	1740
c1ccc([C@@H]2C[C@H]2C2=NCCN2)cc1	347
